Results as given in US20100317647A1 (priority 2009, published 2010).

target: human Cat S (Homo sapiens, UniProt P25774); experiment: Cathepsin enzyme inhibition assay (fluorogenic peptide substrate cleavage); format: biochemical; details: human Cat S 1 nM; substrate Z-Val-Val-Arg-AMC 20 μM; pH 6.5; fluorescence over 20 minutes
Description: Cathepsin Enzyme Inhibition Assay
Enzyme activity is measured by observing the increase in fluorescence intensity caused by cleavage of a peptide substrate containing a fluorophore whose emission is quenched in the intact peptide.
Assay buffer: 100 mM potassium phosphate pH 6.5, EDTA-Na 5 mM, Triton X-100 0.001%, DTT 5 mM. Enzymes (all at 1 nM): human and mouse Cathepsin S, Cat K, Cat B, Cat L. Substrate (20 μM): Z-Val-Val-Arg-AMC, except for Cat K which uses Z-Leu-Arg-AMC (both from Bachem).
AMC=7-Amino-4-Methyl-Coumarin.
DTT=dithiothreitol. Final volume: 100 μL.
Excitation 360 nm, Emission 465 nm.
Enzyme is added to the substance dilutions in 96-well microtitre plates and the reaction is started with substrate. Fluorescence emission is measured over 20 minutes, during which time a linear increase is observed in the absence of inhibitor. IC50 are calculated by standard methods. Inhibition of human Cat S, mouse Cat S, human Cat K, mouse Cat K, human Cat B, mouse Cat B, human Cat L and mouse Cat L have been measured separately. The results obtained for human Cat S are expressed in the following table.

Sequence of human Cat S (P25774 115-331): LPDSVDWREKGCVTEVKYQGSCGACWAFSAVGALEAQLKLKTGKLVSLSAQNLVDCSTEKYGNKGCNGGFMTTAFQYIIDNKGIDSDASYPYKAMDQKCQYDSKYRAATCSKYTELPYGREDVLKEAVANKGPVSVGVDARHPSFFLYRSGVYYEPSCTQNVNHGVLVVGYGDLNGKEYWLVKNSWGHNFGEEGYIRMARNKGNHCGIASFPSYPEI

IC50 [nM]	Compound
565	C[C@@H](Oc1ccc(S(=O)(=O)[C@H]2CC[C@H](C(=O)NC3(C#N)CC3)C2)c(Cl)c1)C(F)(F)F (racemic) [Example 93]
72.5	CNC(=O)[C@@H]1C[C@H](S(=O)(=O)c2ccccc2)C[C@H]1C(=O)NC1(C#N)CC1 [Example 29, (1R,2R,4S)-4-Benzenesulfonyl-cyclopentane-1,2-dicarboxylic acid 1-[(1-cyano-cyclopropyl)-amide]2-methylamide]
7.3	CN1CCC(C#N)(NC(=O)[C@@H]2C[C@@H](S(=O)(=O)c3ccccc3C(F)(F)F)C[C@H]2OCc2ccc(Cl)cc2)CC1 (racemic) [Example 235, (1R,2R,4R) and (1S,2S,4S)-2-(4-Chloro-benzyloxy)-4-(2-trifluoromethyl-benzenesulfonyl)-cyclopentanecarboxylic acid (4-cyano-1-methyl-piperidin-4-yl)-amide]
7.4	COc1ccc(S(=O)(=O)[C@H]2C[C@@H](OC)[C@H](C(=O)NC3(C#N)CC3)C2)c(Cl)c1 (racemic) [Example 89, (1R,2R,4R) and (1S,2S,4S)-4-(2-Chloro-4-methoxy-benzenesulfonyl)-2-methoxy-cyclopentanecarboxylic acid (1-cyano-cyclopropyl)-amide]
82.3	N#CCNC(=O)[C@@H]1C[C@@H](S(=O)(=O)c2ccccc2Cl)C[C@H]1O (racemic) [Example 49, (1R,2R,4R) and (1S,2S,4S)-4-(2-Chloro-benzenesulfonyl)-2-hydroxy-cyclopentanecarboxylic acid cyanomethyl-amide]
1.1	N#CC1(NC(=O)[C@@H]2C[C@@H](S(=O)(=O)c3ccc(Br)cc3C(F)(F)F)C[C@H]2C(=O)N2CC(F)(F)C2)CC1 [Example 117, (1R,2R,4R)-4-(4-Bromo-2-trifluoromethyl-benzenesulfonyl)-2-(3,3-difluoro-azetidine-1-carbonyl)-cyclopentanecarboxylic acid (1-cyano-cyclopropyl)-amide]
0.6	CO[C@@H]1C[C@H](S(=O)(=O)c2ccc(-c3ccnc(C)c3)cc2C(F)(F)F)C[C@H]1C(=O)NC1(C#N)CC1 (racemic) [Example 77, (1R,2R,4R) and (1S,2S,4S)-2-Methoxy-4-[4-(2-methyl-pyridin-4-yl)-2-trifluoromethyl-benzenesulfonyl]-cyclopentanecarboxylic acid (1-cyano-cyclopropyl)-amide]
7.4	N#CC1(NC(=O)[C@@H]2C[C@@H](S(=O)(=O)c3ccccc3)C[C@H]2C(=O)N2CC(O)C2)CC1 [Example 15, (1R,2R,4R)-4-Benzenesulfonyl-2-(3-hydroxy-azetidine-1-carbonyl)-cyclopentanecarboxylic acid (1-cyano-cyclopropyl)-amide]
0.675	CO[C@H]1C[C@@H](S(=O)(=O)c2ccc(-n3cc(CCO)nn3)cc2C(F)(F)F)C[C@@H]1C(=O)NC1(C#N)CC1 (racemic) [Example 253, (1S,2S,4S) and (1R,2R,4R)-4-{4-[4-(2-Hydroxy-ethyl)-[1,2,3]triazol-1-yl]-2-trifluoromethyl-benzenesulfonyl}-2-methoxy-cyclopentanecarboxylic acid (1-cyano-cyclopropyl)-amide]
683	N#CCNC(=O)[C@H]1CC[C@H](S(=O)(=O)c2ccc(F)cc2Cl)C1 (racemic) [Example 79, (1S,3S) and (1R,3R)-3-(2-Chloro-4-fluoro-benzenesulfonyl)-cyclopentanecarboxylic acid cyanomethyl-amide]
3080	N#CC1(NC(=O)[C@@H]2C[C@H](S(=O)(=O)c3ccccc3Cl)C[C@H]2COc2ccc(Cl)cc2)CC1 (single isomer, unassigned) [Example 71]
3	N#CC1(NC(=O)[C@@H]2C[C@@H](S(=O)(=O)c3ccc(F)cc3Cl)C[C@H]2COc2ccccc2)CC1 [Example 164, (1R,2R,4S)-4-(2-Chloro-4-fluoro-benzenesulfonyl)-2-phenoxymethyl-cyclopentanecarboxylic acid (1-cyano-cyclopropyl)-amide]
26.5	CO[C@@H]1C[C@H](S(=O)(=O)c2ccc(O[C@H](C)C(F)(F)F)cc2Cl)C[C@H]1C(=O)NC1(C#N)CC1 (racemic) [Example 60, (1R,2R,4R) and (1S,2S,4S)-4-[2-Chloro-4-((R/S)-2,2,2-trifluoro-1-methyl-ethoxy)-benzenesulfonyl]-2-methoxy-cyclopentanecarboxylic acid (1-cyano-cyclopropyl)-amide]
0.4	C[C@@H]1CN(C(=O)[C@@H]2C[C@H](S(=O)(=O)c3ccccc3)C[C@H]2C(=O)NC2(C#N)CC2)C[C@H](C)O1 [Example 16, (1R,2R,4R)-4-Benzenesulfonyl-2-((2S,6R)-2,6-dimethyl-morpholine-4-carbonyl)-cyclopentanecarboxylic acid (1-cyano-cyclopropyl)-amide]
6.2	CN(C)C(=O)[C@@H]1C[C@H](S(=O)(=O)c2ccccc2)C[C@H]1C(=O)NC1(C#N)CC1 [Example 27, (1R,2R,4R)-4-Benzenesulfonyl-cyclopentane-1,2-dicarboxylic acid 1-[(1-cyano-cyclopropyl)-amide]2-dimethylamide]
0.5	N#CCNC(=O)[C@@H]1C[C@@H](S(=O)(=O)c2ccccc2Cl)C[C@H]1C(=O)N1CCOCC1 [Example 3, (1R,2R,4R)-4-(2-Chloro-benzenesulfonyl)-2-(morpholine-4-carbonyl)-cyclopentanecarboxylic acid cyanomethyl-amide]
8.35	N#CC1(NC(=O)[C@@H]2C[C@@H](S(=O)(=O)c3ccccc3C(F)(F)F)C[C@H]2OC2CCCC2)CC1 (racemic) [Example 221, (1R,2R,4R) and (1S,2S,4S)-2-Cyclopentyloxy-4-(2-trifluoromethyl-benzenesulfonyl)-cyclopentanecarboxylic acid (1-cyano-cyclopropyl)-amide]
12	CCOC(=O)N1CCC(C#N)(NC(=O)[C@@H]2C[C@@H](S(=O)(=O)c3ccccc3C(F)(F)F)C[C@H]2OCc2ccc(Cl)cc2)CC1 (racemic) [Example 241, 4-{[(1R,2R,4R) and (1S,2S,4S)-2-(4-Chloro-benzyloxy)-4-(2-trifluoromethyl-benzenesulfonyl)-cyclopentanecarbonyl]-amino}-4-cyano-piperidine-1-carboxylic acid ethyl ester]
0.885	CO[C@@H]1C[C@H](S(=O)(=O)c2ccc(N3CCC(F)(F)CC3)cc2C(F)(F)F)C[C@H]1C(=O)NC1(C#N)CC1 (racemic) [Example 178, (1R,2R,4R) and (1S,2S,4S)-4-[4-(4,4-Difluoro-piperidin-1-yl)-2-trifluoromethyl-benzenesulfonyl]-2-methoxy-cyclopentanecarboxylic acid (1-cyano-cyclopropyl)-amide]
0.555	N#CC1(NC(=O)[C@@H]2C[C@@H](S(=O)(=O)c3ccccn3)C[C@H]2C(=O)N2CCC(F)(F)C2)CC1 [Example 227, (1R,2R,4R)-2-(3,3-Difluoro-pyrrolidine-1-carbonyl)-4-(pyridine-2-sulfonyl)-cyclopentanecarboxylic acid (1-cyano-cyclopropyl)-amide]
0.2	N#CC1(NC(=O)[C@@H]2C[C@@H](S(=O)(=O)c3ccc(-c4ccnc(Cl)c4)cc3C(F)(F)F)C[C@H]2C(=O)N2CC(F)(F)C2)CC1 [Example 122, (1R,2R,4R)-4-[4-(2-Chloro-pyridin-4-yl)-2-trifluoromethyl-benzenesulfonyl]-2-(3,3-difluoro-azetidine-1-carbonyl)-cyclopentanecarboxylic acid (1-cyano-cyclopropyl)-amide]
5.8	CO[C@@H]1C[C@H](S(=O)(=O)c2ccccc2C(F)(F)F)C[C@H]1C(=O)NC1(C#N)CC1 (racemic) [Example 46, (1R,2R,4R) and (1S,2S,4S)-2-Methoxy-4-(2-trifluoromethyl-benzenesulfonyl)-cyclopentanecarboxylic acid (1-cyano-cyclopropyl)-amide]
2.1	CCCO[C@@H]1C[C@H](S(=O)(=O)c2ccccc2C(F)(F)F)C[C@H]1C(=O)NCC#N (racemic) [Example 55, (1R,2R,4R) and (1S,2S,4S)-2-Propoxy-4-(2-trifluoromethyl-benzenesulfonyl)-cyclopentanecarboxylic acid cyanomethyl-amide]
32	Cc1ccc(S(=O)(=O)C2C[C@@H](C(=O)NC3(C#N)CC3)[C@H](C(=O)N3CCC(F)(F)C3)C2)nn1 (mixture of isomers) [Example 224, (1R,2R,4S)-2-(3,3-Difluoro-pyrrolidine-1-carbonyl)-4-(6-methyl-pyridazine-3-sulfonyl)-cyclopentanecarboxylic acid (1-cyano-cyclopropyl)-amide and (1R,2R,4R)-2-(3,3-Difluoro-pyrrolidine-1-carbonyl)-4-(6-methyl-pyridazine-3-sulfonyl)-cyclopentanecarboxylic acid (1-cyano-cyclopropyl)-amide]
2.6	CCN(CC)C(=O)[C@@H]1C[C@H](S(=O)(=O)c2ccccc2)C[C@H]1C(=O)NC1(C#N)CC1 [Example 25, (1R,2R,4R)-4-Benzenesulfonyl-cyclopentane-1,2-dicarboxylic acid 1-[(1-cyano-cyclopropyl)-amide]2-diethylamide]
